Where two headings read alike, the source gives them in different places.
Experiments:
Assay in all cases: Eurofins kinase selectivity profile against 380 other human recombinant kinases (Table S2)
Format in all cases: biochemical
[1] = molecular target: T1, 380 human recombinant protein kinases (Homo sapiens, UniProt P06241); conditions: Fyn(h), read-out: Inhibition rate
T1 construct: purchased Eurofins (Celle Lévescault)
Summary of the method: (§1)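 Outsourced panel: 380 human recombinant kinases; inhibitor tested at various concentrations; purpose: MK2 selectivity check.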

[2] = molecular target: T2, 380 human recombinant protein kinases (Homo sapiens, UniProt P12931); conditions: for inhibition at 0.01 µM: 10 nM; for inhibition at 0.1 µM: 100 nM; for inhibition at 1 µM: 1000 nM
T2 construct: purchased Eurofins (Celle Lévescault)
Summary of the method: as §1

[3] = molecular target: T3, 380 human recombinant protein kinases (Homo sapiens, UniProt P35626); conditions: GRK3(h), read-out: Inhibition rate
T3 construct: purchased Eurofins (Celle Lévescault)
T3 sequence (P35626 1-688): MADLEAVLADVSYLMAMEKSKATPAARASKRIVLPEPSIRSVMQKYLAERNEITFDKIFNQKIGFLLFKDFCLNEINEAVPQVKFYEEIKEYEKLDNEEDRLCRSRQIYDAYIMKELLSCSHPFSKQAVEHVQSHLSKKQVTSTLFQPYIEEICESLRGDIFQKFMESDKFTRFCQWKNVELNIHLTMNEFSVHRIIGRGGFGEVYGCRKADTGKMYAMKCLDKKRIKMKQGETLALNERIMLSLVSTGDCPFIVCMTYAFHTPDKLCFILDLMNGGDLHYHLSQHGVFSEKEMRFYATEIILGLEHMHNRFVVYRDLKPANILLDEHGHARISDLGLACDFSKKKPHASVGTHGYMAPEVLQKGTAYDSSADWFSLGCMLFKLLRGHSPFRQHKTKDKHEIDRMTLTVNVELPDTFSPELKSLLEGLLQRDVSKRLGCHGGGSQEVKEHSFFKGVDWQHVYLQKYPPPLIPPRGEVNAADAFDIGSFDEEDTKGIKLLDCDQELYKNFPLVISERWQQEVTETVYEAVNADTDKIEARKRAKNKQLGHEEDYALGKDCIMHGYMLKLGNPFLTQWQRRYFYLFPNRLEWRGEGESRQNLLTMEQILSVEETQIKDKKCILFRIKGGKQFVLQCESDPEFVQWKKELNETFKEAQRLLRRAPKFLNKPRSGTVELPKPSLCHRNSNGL
Summary of the method: as §1

[4] = molecular target: T4, 380 human recombinant protein kinases (Homo sapiens, UniProt Q2M2I8); conditions: AAK1(h), read-out: Inhibition rate
T4 construct: purchased Eurofins (Celle Lévescault)
Summary of the method: as §1

[5] = molecular target: T5, 380 human recombinant protein kinases (Homo sapiens, UniProt Q8IY84); conditions: NIM1(h), read-out: Inhibition rate
T5 construct: purchased Eurofins (Celle Lévescault)
Summary of the method: as §1

[6] = molecular target: T6, 380 human recombinant protein kinases (Homo sapiens, UniProt Q96RR4); conditions: CaMKK2(h), read-out: Inhibition rate
T6 construct: purchased Eurofins (Celle Lévescault)
Summary of the method: as §1

[7] = molecular target: T7, 380 human recombinant protein kinases (Homo sapiens, UniProt Q9NYL2); conditions: ZAK(h), read-out: Inhibition rate (%)
T7 construct: purchased Eurofins (Celle Lévescault)
Summary of the method: as §1

[8] = molecular target: T8, 380 human recombinant protein kinases (Homo sapiens, UniProt Q9NYV4); conditions: CDK12/cyclinK(h), read-out: Inhibition rate
T8 construct: purchased Eurofins (Celle Lévescault)
Summary of the method: as §1

[9] = molecular target: T9, 380 human recombinant protein kinases (Homo sapiens, UniProt Q9UHD2); conditions: TBK1(h), read-out: Inhibition rate (%)
T9 construct: purchased Eurofins (Celle Lévescault)
T9 sequence (Q9UHD2 1-729): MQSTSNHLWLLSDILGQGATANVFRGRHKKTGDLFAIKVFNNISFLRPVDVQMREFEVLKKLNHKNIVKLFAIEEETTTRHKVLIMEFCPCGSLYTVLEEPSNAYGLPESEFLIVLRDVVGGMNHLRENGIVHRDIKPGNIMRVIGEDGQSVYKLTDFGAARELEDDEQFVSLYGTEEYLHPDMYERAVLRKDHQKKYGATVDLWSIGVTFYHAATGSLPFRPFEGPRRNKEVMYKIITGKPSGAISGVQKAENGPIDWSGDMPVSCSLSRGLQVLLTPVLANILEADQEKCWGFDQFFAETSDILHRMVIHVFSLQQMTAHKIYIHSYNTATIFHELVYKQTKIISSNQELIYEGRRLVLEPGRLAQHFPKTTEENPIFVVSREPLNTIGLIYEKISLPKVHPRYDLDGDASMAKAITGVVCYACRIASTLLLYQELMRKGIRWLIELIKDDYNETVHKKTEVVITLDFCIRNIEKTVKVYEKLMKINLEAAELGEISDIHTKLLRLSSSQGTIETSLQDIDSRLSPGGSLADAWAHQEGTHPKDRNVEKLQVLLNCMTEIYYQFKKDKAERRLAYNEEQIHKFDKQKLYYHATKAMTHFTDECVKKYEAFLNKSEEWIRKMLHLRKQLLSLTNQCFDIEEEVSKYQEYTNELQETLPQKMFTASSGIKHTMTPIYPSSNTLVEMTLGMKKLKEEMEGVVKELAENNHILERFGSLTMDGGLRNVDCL
Summary of the method: as §1

[10] = molecular target: T10, 380 human recombinant protein kinases (Homo sapiens, UniProt Q9UK32); conditions: Rsk4(h), read-out: Inhibition rate (%)
T10 construct: purchased Eurofins (Celle Lévescault)
Summary of the method: as §1

[11] = molecular target: T11, 380 human recombinant protein kinases (Homo sapiens, UniProt Q9Y2H1); conditions: NDR2(h), read-out: Inhibition rate
T11 construct: purchased Eurofins (Celle Lévescault)
Summary of the method: as §1

[12] = Src(1-530)(h), read-out: Inhibition rate (%)
[13] = cSRC(h), read-out: Inhibition rate

T6 sequence (Q96RR4 whole entry): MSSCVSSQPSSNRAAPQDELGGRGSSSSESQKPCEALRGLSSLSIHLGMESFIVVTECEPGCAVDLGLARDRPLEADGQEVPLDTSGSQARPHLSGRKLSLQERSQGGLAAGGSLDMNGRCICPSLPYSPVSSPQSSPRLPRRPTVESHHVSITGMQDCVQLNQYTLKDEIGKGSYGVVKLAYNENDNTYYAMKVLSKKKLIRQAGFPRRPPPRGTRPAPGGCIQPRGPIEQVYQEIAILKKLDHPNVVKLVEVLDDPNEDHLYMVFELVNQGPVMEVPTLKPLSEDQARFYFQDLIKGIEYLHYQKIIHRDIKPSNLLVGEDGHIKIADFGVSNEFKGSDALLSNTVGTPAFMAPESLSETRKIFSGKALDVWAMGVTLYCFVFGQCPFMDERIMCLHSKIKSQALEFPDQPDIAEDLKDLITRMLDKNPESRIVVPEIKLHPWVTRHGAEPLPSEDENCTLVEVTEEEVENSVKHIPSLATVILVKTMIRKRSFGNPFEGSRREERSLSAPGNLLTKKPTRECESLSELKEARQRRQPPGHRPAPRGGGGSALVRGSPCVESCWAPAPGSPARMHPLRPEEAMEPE
T2 sequence (P12931 whole entry): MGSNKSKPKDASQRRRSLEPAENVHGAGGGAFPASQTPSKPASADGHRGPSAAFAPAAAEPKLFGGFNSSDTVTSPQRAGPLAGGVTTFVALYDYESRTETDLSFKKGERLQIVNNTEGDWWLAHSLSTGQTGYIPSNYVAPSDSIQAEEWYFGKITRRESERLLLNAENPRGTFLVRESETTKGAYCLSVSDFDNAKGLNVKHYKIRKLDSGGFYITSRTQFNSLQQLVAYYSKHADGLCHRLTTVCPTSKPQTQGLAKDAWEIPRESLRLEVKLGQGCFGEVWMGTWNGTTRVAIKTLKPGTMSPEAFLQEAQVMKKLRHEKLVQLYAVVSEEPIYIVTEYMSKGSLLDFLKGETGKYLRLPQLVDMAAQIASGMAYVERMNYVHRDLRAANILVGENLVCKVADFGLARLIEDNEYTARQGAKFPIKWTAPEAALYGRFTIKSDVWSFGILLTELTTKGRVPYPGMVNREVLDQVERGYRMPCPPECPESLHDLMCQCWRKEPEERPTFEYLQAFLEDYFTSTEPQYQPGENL
T10 sequence (Q9UK32 whole entry): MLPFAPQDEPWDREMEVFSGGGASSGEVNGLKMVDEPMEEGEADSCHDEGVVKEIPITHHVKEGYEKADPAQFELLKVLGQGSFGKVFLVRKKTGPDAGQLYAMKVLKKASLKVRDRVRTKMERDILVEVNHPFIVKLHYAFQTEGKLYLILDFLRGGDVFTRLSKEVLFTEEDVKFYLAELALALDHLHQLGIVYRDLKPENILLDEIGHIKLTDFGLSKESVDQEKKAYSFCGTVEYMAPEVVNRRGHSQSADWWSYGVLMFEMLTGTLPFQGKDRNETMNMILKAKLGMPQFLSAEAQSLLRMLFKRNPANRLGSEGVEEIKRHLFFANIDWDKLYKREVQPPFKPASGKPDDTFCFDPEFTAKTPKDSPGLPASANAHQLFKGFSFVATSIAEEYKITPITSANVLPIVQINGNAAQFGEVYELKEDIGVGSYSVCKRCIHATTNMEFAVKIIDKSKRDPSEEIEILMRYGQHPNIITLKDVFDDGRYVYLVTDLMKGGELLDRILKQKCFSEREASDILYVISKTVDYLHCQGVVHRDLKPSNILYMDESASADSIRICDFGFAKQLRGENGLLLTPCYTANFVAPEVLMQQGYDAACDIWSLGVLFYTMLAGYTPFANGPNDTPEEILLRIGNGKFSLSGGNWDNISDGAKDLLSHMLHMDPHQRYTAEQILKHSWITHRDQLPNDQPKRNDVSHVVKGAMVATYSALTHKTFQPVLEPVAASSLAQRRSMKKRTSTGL
T8 sequence (Q9NYV4 whole entry): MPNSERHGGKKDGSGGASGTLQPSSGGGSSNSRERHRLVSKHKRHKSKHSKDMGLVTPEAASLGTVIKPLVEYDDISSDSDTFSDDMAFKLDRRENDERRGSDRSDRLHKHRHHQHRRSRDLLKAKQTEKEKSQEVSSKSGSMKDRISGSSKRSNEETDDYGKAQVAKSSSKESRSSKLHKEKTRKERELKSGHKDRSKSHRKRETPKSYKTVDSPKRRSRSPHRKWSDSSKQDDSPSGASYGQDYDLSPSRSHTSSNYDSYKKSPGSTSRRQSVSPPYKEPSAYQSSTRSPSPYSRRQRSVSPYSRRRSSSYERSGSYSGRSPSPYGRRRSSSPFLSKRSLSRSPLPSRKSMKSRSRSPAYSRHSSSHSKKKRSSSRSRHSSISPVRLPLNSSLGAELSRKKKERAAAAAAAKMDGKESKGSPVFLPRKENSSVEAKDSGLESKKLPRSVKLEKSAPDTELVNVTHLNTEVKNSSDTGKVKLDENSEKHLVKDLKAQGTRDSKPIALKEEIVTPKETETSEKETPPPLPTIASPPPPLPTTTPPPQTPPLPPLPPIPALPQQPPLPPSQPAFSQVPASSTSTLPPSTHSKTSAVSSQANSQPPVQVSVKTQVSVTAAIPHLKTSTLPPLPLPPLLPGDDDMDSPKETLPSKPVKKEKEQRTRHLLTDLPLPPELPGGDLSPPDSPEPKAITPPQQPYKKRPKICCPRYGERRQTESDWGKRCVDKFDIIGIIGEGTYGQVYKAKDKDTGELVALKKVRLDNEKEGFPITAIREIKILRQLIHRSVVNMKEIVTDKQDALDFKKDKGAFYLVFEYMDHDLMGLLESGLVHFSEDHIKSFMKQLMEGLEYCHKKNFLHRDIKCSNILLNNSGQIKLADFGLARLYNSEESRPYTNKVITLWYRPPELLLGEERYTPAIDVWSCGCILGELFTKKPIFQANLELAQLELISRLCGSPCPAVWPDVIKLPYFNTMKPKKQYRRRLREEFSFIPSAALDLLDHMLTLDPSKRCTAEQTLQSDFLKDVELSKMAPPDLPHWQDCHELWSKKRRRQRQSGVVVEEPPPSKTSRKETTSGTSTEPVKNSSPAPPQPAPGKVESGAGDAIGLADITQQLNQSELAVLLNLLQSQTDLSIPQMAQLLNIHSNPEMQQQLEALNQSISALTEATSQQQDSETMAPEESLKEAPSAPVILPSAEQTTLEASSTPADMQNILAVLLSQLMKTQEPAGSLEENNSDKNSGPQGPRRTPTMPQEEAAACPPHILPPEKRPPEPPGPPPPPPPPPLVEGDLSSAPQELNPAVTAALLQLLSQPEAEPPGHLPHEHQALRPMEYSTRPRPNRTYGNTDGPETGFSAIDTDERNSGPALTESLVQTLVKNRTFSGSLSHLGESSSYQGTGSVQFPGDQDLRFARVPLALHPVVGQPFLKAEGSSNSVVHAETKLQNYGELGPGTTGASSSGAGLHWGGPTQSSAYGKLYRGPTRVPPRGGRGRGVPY
T7 sequence (Q9NYL2 whole entry): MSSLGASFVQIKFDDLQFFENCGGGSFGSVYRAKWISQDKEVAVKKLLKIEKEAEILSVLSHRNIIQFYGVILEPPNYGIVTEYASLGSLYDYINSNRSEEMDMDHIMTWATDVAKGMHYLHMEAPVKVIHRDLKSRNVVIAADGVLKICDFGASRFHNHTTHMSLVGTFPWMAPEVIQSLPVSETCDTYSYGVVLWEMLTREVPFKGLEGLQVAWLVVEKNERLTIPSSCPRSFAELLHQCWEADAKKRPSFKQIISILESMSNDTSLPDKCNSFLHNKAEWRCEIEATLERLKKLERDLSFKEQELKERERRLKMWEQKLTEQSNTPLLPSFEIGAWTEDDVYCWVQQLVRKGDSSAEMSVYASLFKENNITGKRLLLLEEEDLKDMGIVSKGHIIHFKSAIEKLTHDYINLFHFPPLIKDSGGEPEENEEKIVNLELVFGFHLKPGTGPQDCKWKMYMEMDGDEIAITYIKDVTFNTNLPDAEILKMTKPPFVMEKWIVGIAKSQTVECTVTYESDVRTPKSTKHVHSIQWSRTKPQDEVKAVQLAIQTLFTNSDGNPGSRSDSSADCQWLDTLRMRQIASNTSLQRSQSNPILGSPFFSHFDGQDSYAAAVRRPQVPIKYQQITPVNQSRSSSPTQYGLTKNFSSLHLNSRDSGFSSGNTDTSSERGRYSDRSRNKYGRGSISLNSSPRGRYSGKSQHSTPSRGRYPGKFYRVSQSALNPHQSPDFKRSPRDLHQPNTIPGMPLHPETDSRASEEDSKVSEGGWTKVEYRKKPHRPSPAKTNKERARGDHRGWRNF
T1 sequence (P06241 whole entry): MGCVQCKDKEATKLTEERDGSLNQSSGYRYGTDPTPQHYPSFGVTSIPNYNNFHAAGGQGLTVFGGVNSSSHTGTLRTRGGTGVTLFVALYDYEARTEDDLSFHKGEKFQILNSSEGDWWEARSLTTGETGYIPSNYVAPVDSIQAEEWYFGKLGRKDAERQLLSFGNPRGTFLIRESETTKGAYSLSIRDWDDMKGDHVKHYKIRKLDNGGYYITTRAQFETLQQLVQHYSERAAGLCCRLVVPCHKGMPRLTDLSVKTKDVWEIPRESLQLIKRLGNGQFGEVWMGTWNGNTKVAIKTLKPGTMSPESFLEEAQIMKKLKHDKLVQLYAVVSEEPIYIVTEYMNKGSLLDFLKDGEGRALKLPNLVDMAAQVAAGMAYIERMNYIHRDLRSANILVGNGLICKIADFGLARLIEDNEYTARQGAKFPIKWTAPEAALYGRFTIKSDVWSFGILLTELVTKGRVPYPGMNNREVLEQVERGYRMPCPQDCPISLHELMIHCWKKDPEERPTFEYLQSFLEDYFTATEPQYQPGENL

**Q.** How did the inhibition at 0.01 µM ([1]; 10 nM) turn out when `C=CC(=O)Nc1cc(-c2cc(-c3cc4c([nH]3)CCNC4=O)ccn2)ccc1OC(F)(F)F` [compound 11] was run?
**A.** The inhibition at 0.01 µM was 0%.

**Q.** And the inhibition at 0.1 µM ([1]; 100 nM)?
**A.** The inhibition at 0.1 µM was 0%.

**Q.** And the inhibition at 1 µM ([1]; 1000 nM)?
**A.** Its inhibition at 1 µM is 3%.

**Q.** What about the inhibition at 0.01 µM [2, 12] of the same compound?
**A.** The inhibition at 0.01 µM was 6%.

**Q.** And the inhibition at 0.1 µM [2, 12]?
**A.** Its inhibition at 0.1 µM is 5%.

**Q.** And the inhibition at 1 µM [2, 12]?
**A.** The inhibition at 1 µM was -1%.

**Q.** And the inhibition at 0.01 µM [2, 13]?
**A.** Its inhibition at 0.01 µM is 1%.

**Q.** And the inhibition at 0.1 µM [2, 13]?
**A.** The inhibition at 0.1 µM was 8%.

**Q.** And the inhibition at 1 µM [2, 13]?
**A.** Its inhibition at 1 µM is 10%.

**Q.** What about the inhibition at 0.01 µM ([3]; 10 nM) of the same compound?
**A.** The inhibition at 0.01 µM was -3%.

**Q.** What about the inhibition at 0.1 µM ([3]; 100 nM) of the same compound?
**A.** The inhibition at 0.1 µM was -8%.

**Q.** And the inhibition at 1 µM ([3]; 1000 nM)?
**A.** The inhibition at 1 µM was -2%.

**Q.** What about the inhibition at 0.01 µM ([4]; 10 nM) of the same compound?
**A.** Its inhibition at 0.01 µM is -1%.

**Q.** And the inhibition at 0.1 µM ([4]; 100 nM)?
**A.** Its inhibition at 0.1 µM is 11%.

**Q.** What about the inhibition at 1 µM ([4]; 1000 nM) of the same compound?
**A.** The inhibition at 1 µM was 39%.

**Q.** What about the inhibition at 0.01 µM ([5]; 10 nM) of the same compound?
**A.** The inhibition at 0.01 µM was -4%.

**Q.** What about the inhibition at 0.1 µM ([5]; 100 nM) of the same compound?
**A.** The inhibition at 0.1 µM was -7%.

**Q.** What about the inhibition at 1 µM ([5]; 1000 nM) of the same compound?
**A.** Its inhibition at 1 µM is -3%.

**Q.** And the inhibition at 0.01 µM ([6]; 10 nM)?
**A.** The inhibition at 0.01 µM was -9%.

**Q.** And the inhibition at 0.1 µM ([6]; 100 nM)?
**A.** Its inhibition at 0.1 µM is -1%.

**Q.** And the inhibition at 1 µM ([6]; 1000 nM)?
**A.** The inhibition at 1 µM was 38%.

**Q.** What about the inhibition at 0.01 µM ([7]; 10 nM) of the same compound?
**A.** Its inhibition at 0.01 µM is -3%.

**Q.** What about the inhibition at 0.1 µM ([7]; 100 nM) of the same compound?
**A.** Its inhibition at 0.1 µM is -1%.

**Q.** What about the inhibition at 1 µM ([7]; 1000 nM) of the same compound?
**A.** The inhibition at 1 µM was 1%.

**Q.** What about the inhibition at 0.01 µM ([8]; 10 nM) of the same compound?
**A.** The inhibition at 0.01 µM was -1%.

**Q.** What about the inhibition at 0.1 µM ([8]; 100 nM) of the same compound?
**A.** Its inhibition at 0.1 µM is 1%.

**Q.** And the inhibition at 1 µM ([8]; 1000 nM)?
**A.** Its inhibition at 1 µM is 5%.

**Q.** What about the inhibition at 0.01 µM ([9]; 10 nM) of the same compound?
**A.** The inhibition at 0.01 µM was 1%.

**Q.** What about the inhibition at 0.1 µM ([9]; 100 nM) of the same compound?
**A.** Its inhibition at 0.1 µM is -13%.

**Q.** And the inhibition at 1 µM ([9]; 1000 nM)?
**A.** Its inhibition at 1 µM is -7%.

**Q.** And the inhibition at 0.01 µM ([10]; 10 nM)?
**A.** Its inhibition at 0.01 µM is -9%.

**Q.** What about the inhibition at 0.1 µM ([10]; 100 nM) of the same compound?
**A.** Its inhibition at 0.1 µM is -4%.

**Q.** And the inhibition at 1 µM ([10]; 1000 nM)?
**A.** Its inhibition at 1 µM is -13%.

**Q.** And the inhibition at 0.01 µM ([11]; 10 nM)?
**A.** Its inhibition at 0.01 µM is -5%.

**Q.** What about the inhibition at 0.1 µM ([11]; 100 nM) of the same compound?
**A.** The inhibition at 0.1 µM was -10%.

**Q.** And the inhibition at 1 µM ([11]; 1000 nM)?
**A.** Its inhibition at 1 µM is -2%.
